In general, IC50 refers to the midpoint of a concentration-inhibition curve.

One test deals with AR 1.0 cells. Nature of the test: Drug accumulation assay (tritiated daunorubicin) in MDR resistant AR 1.0 cells. The format is cell-based. Conditions: Mus musculus, 1 h, DNR 2 μM, 100% = accumulation with 100 μM Verapamil, read-out: MAX accumulation (% 100 μm VRP). The method, then:
The EMT6 mouse mammary carcinoma cell line and the MDR resistant subline AR 1.0 were cultured in RPMI 1640 medium containing 10% foetal calf serum and 2 mM glutamine at 37° C. in 5% CO2 . Cells were passaged between 1 in 200 and 1 in 2000 in the case of the parental cell line and between 1 in 20 and 1 in 200 in the case of the MDR resistant subline, after trypsinisation (0.25% trypsin, 0.2 gl^-1, EDTA).
AR 1.0 cells were seeded into 96 well opaque culture plates (Canberra Packard). The assay medium contained a mixture of tritiated Daunorubicin (DNR), a cytotoxic agent, and unlabelled DNR (0.25μ Ci/ml; 2 μM). Compounds of formula A were serially diluted in assay medium over a range of concentrations from 100 nM to 100 μM. The cells were incubated at 37° C. for 1 hr before washing and counting of cell associated radioactivity. Each assay included a titration of the known resistance modifying agent Verapamil as positive control. Results were expressed as % maximum accumulation where 100% accumulation is that observed in the presence of 100 μM Verapamil.
`COc1ccc(/C=c2\[nH]c(=O)/c(=C/c3ccccc3)n(CC(=O)N3CCCC3)c2=O)cc1` [Compound 1526, N,N-Tetramethylene-(3Z,6Z)-6-benzylidene-3-(4-methoxybenzylidene)-2,5-dioxo-1-piperazinylacetamide]: the Emax came out at 23.3%. For the compound `COc1ccc(/C=c2/c(=O)[nH]/c(=C\c3ccccc3)c(=O)n2CC(=O)N(C)C)cc1` [Compound 1614, N,N,-Dimethyl-(3Z,6Z)-3-benzylidene-6-(4-methoxybenzylidene)-2,5-dioxo-1-piperazinylacetamide], the Emax was 25%. The same measure, in the same setting: then `COc1ccc(/C=c2\nc(OCC3CC3)/c(=C/c3ccccc3)n(C)c2=O)cc1` [Compound 1745, (3Z,6Z)-6-Benzylidene-5-cyclopropylmethoxy-3-(4-methoxybenzylidene)-1-methyl-3,6-dihydro-2-pyrazinone], with 35%.

`COc1n/c(=C\c2ccccc2)c(=O)n(C)/c1=C\c1ccccc1` [Compound 1771]: the Emax was found to be 60%. Regarding `Cn1c(=O)/c(=C/c2ccccc2)nc(OCC2CCCCC2)/c1=C/c1ccccc1` [Compound 1780], the Emax was 20%.

Take `CCOc1n/c(=C\c2ccccc2)c(=O)n(C)/c1=C\c1ccccc1` [Compound 1801, (3Z,6Z)-3,6-Dibenzylidene-5-ethoxy-1-methyl-3,6-dihydro-2-pyrazinone]: the Emax was 40%. The same measure, in the same setting: to `Cn1c(=O)/c(=C/c2ccccc2)n(CCBr)c(=O)/c1=C/c1ccccc1` [Compound 1803, (3Z,6Z)-3,6-Dibenzylidene-1-(2-bromoethyl)-4-methyl-2,5-piperazinedione] belongs 50%; to `CC(C)Oc1n/c(=C\c2ccccc2)c(=O)n(C)/c1=C\c1ccccc1` [Compound 1819, (3Z,6Z)-3,6-Dibenzylidene-5-isopropoxy-1-methyl-3,6-dihydro-2-pyrazinone], 23%; to `Cn1c(=O)/c(=C/c2ccccc2)nc(OCCc2ccccc2)/c1=C/c1ccccc1` [Compound 1820, (3Z,6Z)-3,6-Dibenzylidene-1-methyl-5-(2-phenethoxy)-3,6-dihydro-2-pyrazinone], 34%. As to `CC(C)COc1n/c(=C\c2ccccc2)c(=O)n(C)/c1=C\c1ccccc1` [Compound 1821, (3Z,6Z)-3,6-Dibenzylidene-5-isobutoxy-1-methyl-3,6-dihydro-2-pyrazinone], the Emax came to 35%. In the case of `C=CCCOc1n/c(=C\c2ccccc2)c(=O)n(C)/c1=C\c1ccccc1` [Compound 1826, (3Z,6Z)-3,6-Dibenzylidene-5-(3-butenyloxy)-1-methyl-3,6-dihydro-2-pyrazinone], the Emax was 40%. Take `Cn1c(=O)/c(=C/c2ccccc2)nc(OCC#N)/c1=C/c1ccccc1` [Compound 1827, (3Z,6Z)-3,6-Dibenzylidene-1-methyl-2-oxo-1,2,3,6-tetrahydro-5-pyrazinyloxyacetonitrile]: the Emax worked out at 35%. Still for that read-out and setting: then `CC=CCOc1n/c(=C\c2ccccc2)c(=O)n(C)/c1=C\c1ccccc1` [Compound 1861, (3Z,6Z)-3,6-Dibenzylidene-5-(2-butenyloxy)-1-methyl-3,6-dihydro-2-pyrazinone], with 46%; and `C=CCOc1n/c(=C\c2ccccc2)c(=O)n(C)/c1=C\c1ccccc1` [Compound 1864, (3Z,6Z)-5-Allyloxy-3,6-dibenzylidene-1-methyl-3,6-dihydro-2-pyrazinone], with 45%. Regarding `CC(=O)OCCCCOc1n/c(=C\c2ccccc2)c(=O)n(C)/c1=C\c1ccccc1` [Compound 1904, (3Z,6Z)-5-(4-Acetoxybutoxy)-3,6-dibenzylidene-1-methyl-3,6-dihydro-2-pyrazinone], the Emax was determined as 47%.

Take `Cn1c(=O)/c(=C/c2ccccc2)nc(OCN2C(=O)c3ccccc3C2=O)/c1=C/c1ccccc1` [Compound 1905, (3Z,6Z)-3,6-Dibenzylidene-1-methyl-5-phthalimidomethoxy-3,6-dihydro-2-pyrazinone]: the Emax came out at 29%. On to `O=c1/c(=C/c2ccccc2)n(Cc2ccccc2)c(=O)/c(=C/c2ccccc2)n1Cc1ccccc1` [Compound 1906, (3Z,6Z)-1,4-Dibenzyl-3,6-dibenzylidene-2,5-piperazinedione], for which the Emax amounted to 34%.

Still in this test, the particulars now being: Mus musculus, DNR 2 μM, 37° C., 1 hr.
`COC(=O)Cn1c(=O)/c(=C/c2ccccc2)[nH]c(=O)/c1=C/c1ccc(OC)cc1` [Compound 1486, Methyl (3Z,6Z)-3-benzylidene-6-(4-methoxybenzylidene)-2,5-dioxo-1-piperazinylacetate]: the IC50 turned out to be 50 µM. Compound `COc1n/c(=C\c2ccccc2)c(=O)n(C)/c1=C\c1ccccc1` [Compound 1771] came in with an IC50 of 70 µM. `Cn1c(=O)/c(=C/c2ccccc2)n(CCBr)c(=O)/c1=C/c1ccccc1` [Compound 1803, (3Z,6Z)-3,6-Dibenzylidene-1-(2-bromoethyl)-4-methyl-2,5-piperazinedione]: 80 µM corresponded to half-maximal inhibition (IC50). On the same count and under the same terms, to `Cn1c(=O)/c(=C/c2ccccc2)n(CCO)c(=O)/c1=C/c1ccccc1` [Compound 1854, (3Z,6Z)-3,6-Dibenzylidene-1-(2-hydroxyethyl)-4-methyl-2,5-piperazinedione] belongs 35 µM.

The compound `Cn1c(=O)/c(=C/c2ccccc2)n(CCc2ccccc2)c(=O)/c1=C/c1ccccc1` [Compound 1856, (3Z,6Z)-3,6-Dibenzylidene-4-methyl-1-phenethyl-2,5-piperazinedione] returned an IC50 of 15 µM.

`CC(C)Cn1c(=O)/c(=C/c2ccccc2)n(C)c(=O)/c1=C/c1ccccc1` [Compound 1857, (3Z,6Z)-3,6-Dibenzylidene-1-isobutyl-4-methyl-2,5-piperazinedione]: half-maximal inhibition (IC50) was put at 10 µM. The same measure, in the same setting: then `Cn1c(=O)/c(=C/c2ccccc2)n(CC#N)c(=O)/c1=C/c1ccccc1` [Compound 1858, ((3Z,6Z)-3,6-Dibenzylidene-4-methyl-2,5-dioxo-1-piperazinyl)acetonitrile], with 60 µM; and `Cn1c(=O)/c(=C/c2ccccc2)nc(OCC=CCBr)/c1=C/c1ccccc1` [Compound 1859, (3Z,6Z)-3,6-Dibenzylidene-5-(4-bromo-2-butenyloxy)-1-methyl-3,6-dihydro-2-pyrazinone], with 15 µM.

Consider `Cn1c(=O)/c(=C/c2ccccc2)n(CC=CCBr)c(=O)/c1=C/c1ccccc1` [Compound 1860], for which 10 µM corresponded to half-maximal inhibition (IC50). For the compound `CC=CCn1c(=O)/c(=C/c2ccccc2)n(C)c(=O)/c1=C/c1ccccc1` [Compound 1862, (3Z,6Z)-3,6-Dibenzylidene-1-(but-2-enyl)-4-methyl-2,5-piperazinedione], half-maximal inhibition (IC50) required 8 µM. For the compound `Cn1c(=O)/c(=C/c2ccccc2)nc(OCCO)/c1=C/c1ccccc1` [Compound 1863, (3Z,6Z)-3,6-Dibenzylidene-5-(2-hydroxyethoxy)-1-methyl-3,6-dihydro-2-pyrazinone], the IC50 was determined as 10 µM. `COc1ccc(/C=c2/c(=O)n(Cc3ccccc3)/c(=C\c3c(Cl)cccc3Cl)c(=O)n2C)cc1` [Compound 1878, (3Z,6Z)-1-Benzyl-6-(2,6-dichlorobenzylidene)-3-(4-methoxybenzylidene)-4-methyl-2,5-piperazinedione] showed an IC50 of 5 µM. As to `COc1ccc(/C=c2/c(=O)n(C)/c(=C\c3ccccc3[N+](=O)[O-])c(=O)n2Cc2ccccc2)cc1` [Compound 1879, (3Z,6Z)-1-Benzyl-6-(4-methoxybenzylidene)-4-methyl-3-(2-nitrobenzylidene)-2,5-piperazinedione], 2 µM corresponded to half-maximal inhibition (IC50).

`CN(C)CCCOc1n/c(=C\c2ccccc2)c(=O)n(C)/c1=C\c1ccccc1` [Compound 1900, (3Z,6Z)-3,6-Dibenzylidene-5-(3-dimethylaminopropoxy)-1-methyl-3,6-dihydro-2-pyrazinone]: it took 3 µM to reach half-maximal inhibition (IC50). Same read-out and setting: to `Cn1c(=O)/c(=C/c2ccccc2)nc(OCc2ccncc2)/c1=C/c1ccccc1` [Compound 1901, (3Z,6Z)-3,6-Dibenzylidene-1-methyl-5-(4-pyridyl)methoxy-3,6-dihydro-2-pyrazinone] belongs 12 µM; to `Cn1c(=O)/c(=C/c2ccccc2)nc(OCCN2C(=O)c3ccccc3C2=O)/c1=C/c1ccccc1` [Compound 1902, (3Z,6Z)-3,6-Dibenzylidene-1-methyl-5-(2-phthalimidoethoxy)-3,6-dihydro-2-pyrazinone], 11 µM; to `Cn1c(=O)/c(=C/c2ccccc2)nc(OCCCCN2C(=O)c3ccccc3C2=O)/c1=C/c1ccccc1` [Compound 1903, (3Z,6Z)-3,6-Dibenzylidene-1-methyl-5-(4-phthalimidobutoxy)-3,6-dihydro-2-pyrazinone], 9 µM.

In the case of `Cn1c(=O)/c(=C/c2ccccc2)n(Cc2cccc([N+](=O)[O-])c2)c(=O)/c1=C/c1ccccc1` [Compound 1936, (3Z,6Z)-3,6-Dibenzylidene-1-methyl-4-(3-nitrobenzylidene)-2,5-piperazinedione], the IC50 turned out to be 2 µM.

In turn, `Cn1c(=O)/c(=C/c2ccccc2)n(Cc2ccc([N+](=O)[O-])cc2)c(=O)/c1=C/c1ccccc1` [Compound 1939, (3Z,6Z)-3,6-Dibenzylidene-1-methyl-4-(4-nitrobenzylidene)-2,5-piperazinedione] had an IC50 of 4 µM.

The next test relates to AR 1.0 cells. Nature of the test: Proliferation assay with and without fixed concentration of doxorubicin (sulphorhodamine B). The format is cell-based, mouse. As to conditions: Mus musculus, 96 h; compound alone, four days; read-out: COMPOUND TOXICITY (IC50). An excerpt: Compounds of formula A were examined for their ability to potentiate the toxicity of doxorubicin in AR 1.0 cells.
Regarding `COC(=O)Cn1c(=O)/c(=C/c2ccccc2)[nH]c(=O)/c1=C/c1ccc(OC)cc1` [Compound 1486, Methyl (3Z,6Z)-3-benzylidene-6-(4-methoxybenzylidene)-2,5-dioxo-1-piperazinylacetate], the IC50 came to 10 µM.

The same test, now with this note: fixed concentration 0.5-1 μM.
Regarding `COc1cccc2c1C(=O)c1c(O)c3c(c(O)c1C2=O)C[C@@](O)(C(=O)CO)C[C@@H]3O[C@H]1C[C@H](N)[C@H](O)[C@H](C)O1` [doxorubicin, reference compound], the “toxicity of doxorubicin alone to AR 1.0 cells” value was “non-toxic”.

The record behind these values is US5852018A, “Pharmaceutical piperazine compounds” (Xenova Limited, priority 1994, dated 1998).
